We go through two compounds from patent US20260183322A1, “BORON-BASED ENOLASE LIGANDS AND METHODS OF USE FOR TREATMENT OF CANCER” (LOMA LINDA UNIVERSITY, priority 2022, published 2026).

Common to all, as to type: cell-based
Series [1] concerns parental and DR cell lines (PC3 and DU145). The series is described as follows: Cytotoxic activity in parental and DR prostate cancer cell lines. Conditions: for cytotoxic activity (anti-cancer effects): general statement; for cytotoxicity compared with the other compounds of the ten: in vitro cytotoxicity and anti-proliferative data in docetaxel resistant PCa cell lines; for cell viability: parental and DR cell lines (PC3 and DU145). An excerpt: Out of the initial ten compounds, two target-to-hit specific ligands were identified, BT-768 and BT-772, from the diazaborine-based pharmacophore group and 2-Chloro substituted acetamide derivatives. BT-768 and BT-772 were selected for further studies based on their in vitro cytotoxicity and anti-proliferative data in docetaxel resistant PCa cell lines (see FIG. 3A and FIG. 3B, and FIG. 4A and FIG. 4B). […] The boron-based ligands BT-768 and BT-772 cytotoxic activity in parental and DR cell lines (PC3 and DU145) were then measured.
(§1) FIG. 3A and FIG. 3B, for example, are graphical representations of 3-(4,5-dimethylthiazol-2-yl)-2,5-diphenyl-2H-tetrazolium bromide MTT assay-based dose response curve for the ligand BT-772. FIG. 3A and FIG. 3B represent the average of three independent experiments in triplicates normalized to untreated control assays. As shown in FIG. 3A and FIG. 3B, cell viability was measured by MTT assay. In FIG. 3A, PC3 and PC3-DR cells were treated with increasing concentrations of BT-772 for twenty-four hours.
(§2) In FIG. 3B, DU145 and DU145-DR cells were treated with increasing concentrations of BT-772 for twenty-four hours.

The subject of series [2] is DU145-DR (taxane resistant variant of DU145). The series is described as follows: MTT assay cell viability, DU145-DR. The settings on record: Homo sapiens, DU-145, DU145-DR cells, twenty-four hours, read-out: IC50, cytotoxic activity.
Text: (§3) FIG. 3B is a graphical representation of 3-(4,5-dimethylthiazol-2-yl)-2,5-diphenyl-2H-tetrazolium bromide MTT assay-based dose response curve for the ligand BT-772 in the DU145 prostate cancer cell line and its taxane resistant variant DU145-DR, in accordance with an embodiment of the disclosure.
as §1, §2

In series [3] the test system is DU145 cells. The series is described as follows: Clonogenic assay, DU145. Conditions: DU145 cells growing as colonies. As for the experimental part:
(§4) FIG. 4B is a photographic image of a clonogenic assay-based dose response for the ligand BT-772 in the DU145 and DU145-DR cell lines, in accordance with an embodiment of the disclosure.
(§5) FIG. 4A and FIG. 4B, for example, show images of clonogenic assays, used primarily to determine cancer cell colony formation capacity and proliferation. In FIG. 4A, PC3 and PC3-DR cells were grown at low density in 6-well plates and allowed to form clones for 10 days.
(§6) In FIG. 4B, DU145 and DU145-DR cells growing as colonies were treated with low micromolar concentrations of BT-772 and clonogenicity was noticeable inhibited at concentrations above 3 μM in DU145 cells and at concentrations above 1 μM in DU145-DR cells.

Series [4] has as its system PC3-DR cells. Nature of the series: Clonogenic assay, PC3-DR. Conditions: 6-well plates, 10 days. The protocol:
FIG. 4A is a photographic image of a clonogenic assay-based dose response for the ligand BT-772 in the PC3 and PC3-DR cell lines, in accordance with an embodiment of the disclosure.
as §5

In series [5] the test system is PC3-DR (taxane resistant variant of PC3). The series is described as follows: MTT assay cell viability, PC3-DR. Conditions: PC3-DR cells, twenty-four hours, read-out: IC50 (drug concentration causing 50% inhibition), cytotoxic activity.
Text: (§7) FIG. 3A is a graphical representation of 3-(4,5-dimethylthiazol-2-yl)-2,5-diphenyl-2H-tetrazolium bromide (MTT) assay-based dose response curve for the ligand BT-772 in the PC3 prostate cancer cell line and its taxane resistant variant PC3-DR, in accordance with an embodiment of the disclosure.
as §1
A general note: Tetrazolium dyes change colour on reduction, which living cells bring about.

Series [6] deals with DU145 prostate cancer cell line. Nature of the series: MTT assay cell viability, DU145. The settings on record: Homo sapiens, DU-145, DU145 cells, twenty-four hours, read-out: IC50, cytotoxic activity.
Text: as §3, §1, §2

Series [7] has as its system PC3 prostate cancer cell line. Nature of the series: MTT assay cell viability, PC3. Conditions: Homo sapiens, PC-3, PC3 cells, twenty-four hours, read-out: IC50 (drug concentration causing 50% inhibition), cytotoxic activity.
Text: as §7, §1

The subject of series [8] is DU145-DR cells. Nature of the series: Clonogenic assay, DU145-DR. Conditions: DU145-DR cells growing as colonies. As for the experimental part: as §4, §5, §6

As for `N#Cc1ccc(B2Nc3ccccc3-c3nc4ccccc4n32)s1` [BT-768, 5-(benzo[e]benzo[4,5]imidazo[1,-c][1,3,2]diazaborinin-6 (5H)-yl)thiopene-2-carbonitrile], in series [1], the “cytotoxic activity (anti-cancer effects)” value is recorded as “low μM cytotoxic activity”, the “cytotoxicity compared with the other compounds of the ten” value is “higher cytotoxic than the other eight compounds” and the cell viability result is given as “dose-dependent reduction in cell viability”.
For the compound `Cc1ccc(CN(C(=O)CCl)c2cccc(B3OC(C)(C)C(C)(C)O3)c2)cc1` [BT-772, 2-chloro-N-(4-methylbenzyl)-N-(3-(4,4,5,5-tetramethyl-1,3,2-dioxaborolan-2-yl)phenyl) acetamide], the IC50 in series [2], in series [5], in series [6] and in series [7] was 5 to 10 µM each time. Further, the “concentration above which clonogenicity was noticeably inhibited” value is reported as “above 3 μM” in series [3], “above 3 M” in series [4] and “above 1 μM” in series [8]. For the same compound, the “cytotoxic activity (anti-cancer effects)” value in series [1] is on record as “low μM cytotoxic activity”. In series [1], the “cytotoxicity compared with the other compounds of the ten” value is given as “higher cytotoxic than the other eight compounds”. Also, in series [1], the cell viability result is reported as “dose-dependent reduction in cell viability”.
